{
  "source": "patent US20240148889A1",
  "about": "“STABILIZED TRIOXACARCIN ANTIBODY DRUG CONJUGATES AND USES THEREOF” (President and Fellows of Harvard College, priority 2020, published 2024)",
  "key": {"LXFL 529L": {"tested_on": "LXFL 529L", "conditions": "lung cancer cell line; cited from earlier work"}, "SF-268": {"tested_on": "SF-268", "conditions": "CNS cancer cell line; cited from earlier work"}, "tumor": {"tested_on": "tumor", "conditions": "cited from earlier work"}, "gram-positive": {"tested_on": "gram-positive", "conditions": "cited from earlier work"}, "MCF-7": {"tested_on": "MCF-7", "conditions": "mammary cancer cell line; cited from earlier work"}, "H-460": {"tested_on": "H-460", "conditions": "lung cancer cell line; cited from earlier work"}, "H460 cells": {"tested_on": "H460 cells", "assay": "Cell proliferation assay (resazurin, CellTiter-Blue), H460", "type": "cell-based", "conditions": "for pIC50: Homo sapiens, NCI-H460, 48 h, 2 days incubation, determined in triplicate; for cellular toxicity against H460 cells relative to the parent epoxide: relative to parent epoxide 1", "procedure": "(§1) Cell Culture: Cell line NCI-H460, was purchased from American Type Culture Collection (ATCC). H460 cells were maintained in RPMI-1640 medium and HT-29 cells were maintained in McCoy's 5A medium, supplemented with 10% fetal bovine serum (Life Technologies, UK).\n(§2) Cell Proliferation Assay: Cells were plated in black-walled 96-well plates (3000-4000 cells per well). Stock solutions of each compound were diluted serially and the resulting solutions were administrated to cells to achieve final concentrations of 1.1 nM to 2.5 μM in 100 μL total volume. After incubating at 37° C. (5% CO2) for 2 days (H460), 20 μL of resazurin solution (Promega CellTiter-Blue® Cell Viability Assay) was added to each well. After incubating at 37° C. for 4.0 h, the fluorescence (560 nm excitation/590 nm emission) was recorded using a microplate reader (SpectraMax i3) as a measure of viable cells. IC50 values, determined in triplicate, were calculated using a four-parameter logistic equation."}, "[1]": {"tested_on": "self-complementary duplex DNA oligonucleotide d(AATTACGTAATT)", "assay": "DNA alkylation of duplex oligonucleotide, gel electrophoresis and LC-MS", "type": "biochemical", "excerpt": "In developing the compounds described herein, it was anticipated that reversible opening of the epoxide with a latent leaving group would reduce the reactivity of the warhead while attached to the antibody but would allow for reformation of the epoxide under appropriate conditions. After exploration of a variety of possible epoxide adducts using a potent analog (1, Me-ddx), it was discovered that halohydrin FSTs were not only readily synthesized under Lewis- or Brønsted-acid catalysis, but also reverted to the epoxide cleanly in pH 7.4 cell growth media at 37° C. (Scheme 7). […] The DNA-alkylating capability of the bromohydrin FST 3 in comparison to a set of FST analogs of varying potency by incubation with a self-complementary duplex DNA oligonucleotide d([…]) for 4 h at 23° C. then analysis by gel electrophoresis and LC-MS was investigated."}, "SK-BR-3 (HER2+)": {"tested_on": "SK-BR-3 (HER2+)", "assay": "Cell proliferation assay, SK-BR-3", "type": "cell-based", "conditions": "Homo sapiens", "procedure": "as §2"}, "NCI-N87 (HER2+)": {"tested_on": "NCI-N87 (HER2+)", "assay": "Cell proliferation assay, NCI-N87", "type": "cell-based", "conditions": "Homo sapiens"}, "HT-29 (HER2−)": {"tested_on": "HT-29 (HER2−)", "assay": "Cell proliferation assay, HT-29", "type": "cell-based", "conditions": "Homo sapiens", "procedure": "as §1, §2"}, "[2]": {"assay": "Liberation of bromohydrin by immolative spacer cyclization in buffer", "type": "physicochemical", "excerpt": "In order to prevent premature reversion to the epoxide, a system in which the trioxacarcin prodrug would be linked through the tertiary alcohol of the halohydrin was envisioned. Therefore, epoxide formation could only occur once the payload had been released from the antibody upon delivery to the cellular target. Despite recent advances in the field, technology for linkage through alcohol functional groups is limited. Synthesis of benzyl ether, ester, carbonate, carbamate, diphosphate, and silyl linkers at the tertiary alcohol of 3 (bromohydrin) through previously reported methods all failed. Indeed, the electron withdrawing substituents surrounding the halohydrin alcohol (two P-acetals, a y-acetal and a bromide) coupled with the steric encumbrance they impose prevented reaction of this alcohol with nearly all electrophiles evaluated. […] It was believed that this diamine spacer would release free bromohydrin after peptidase cleavage of the linker. Simultaneous Boc deprotection of both the phenol and amine with trifluoroacetic acid (TFA) provided the TFA salt of the amine 9 after concentration, which was evaluated immediately for liberation of bromohydrin 3. […] Modifications of the diamine spacer unit to increase the rate of cyclization were unsuccessful. […]"}, "[3]": {"assay": "Compound Stability Assay (buffer, 37° C., LC-MS)", "type": "physicochemical", "procedure": "Compound Stability Assay: In a 1.5 mL screw-top conical plastic vial, the desired compound as a solution in DMSO (5 mM, 6 μL, 30 nmol) was mixed with a solution of N-acetylcysteine in DMSO (10 mM, 6 μL, […], 2 equiv) to quench the maleimide. The mixture was diluted with either pH 5.0 sodium acetate or pH 7.4 phosphate buffer containing 8 mM N-acetylcysteine (282 μL). 1-naphthalene acetic acid in DMSO (5 mM, 6 μL, 30 nmol) was added as an internal standard. In the case of testing free drug stability, no N-acetylcysteine solution was added and instead the amount of buffer added was increased an equivalent amount to compensate (288 μL total buffer). The vial was placed in a heating block at 37° C. and protected from direct light. 25 μL aliquots of the reaction mixture were removed at various time points and analyzed by LC-MS. LC-MS peaks were integrated within the Agilent LC-MS software and the areas of each peak were normalized to 1-napthalene acetic acid at 280 nm. Percent compound remaining is defined as the normalized peak area at a given time point divided by the normalized peak area at 0 hours×100%."}, "Cathepsin B": {"molecular_target": "Cathepsin B (Homo sapiens, UniProt P07858)", "assay": "Release Kinetics Assay with Cathepsin B", "type": "biochemical", "conditions": "pH 5.0, 37° C.", "procedure": "Release Kinetics Assay: In a 1.5 mL screw-top conical plastic vial, the desired compound as a solution in DMSO (5 mM, 6 μL, 30 nmol) was mixed with a solution of N-acetylcysteine in DMSO (10 mM, 6 μL, […], 2 equiv) to quench the maleimide. The mixture was diluted with pH 5.0 sodium acetate buffer containing 8 mM N-acetylcysteine (255 μL). 1-napthalene acetic acid in DMSO (5 mM, 6 μL, 30 nmol) was added as an internal standard. A 9.2 U/mL solution of Cathepsin B in pH 5.0 buffer was added. The vial was placed in a heating block at 37° C. and protected from direct light. 25 μL aliquots of the reaction mixture were removed at various time points and analyzed by LC-MS. LC-MS peaks were integrated within the Agilent LC-MS software and the areas of each peak were normalized to 1-napthalene acetic acid at 280 nm. Percent drug-linker remaining is defined as the normalized peak area at a given time point divided by the normalized peak area at 0 hours×100%."}},
  "note": "pIC50: −log10 of the molar value. “Also recorded” adds a separate entry of the source.",
  "data": [
    {"smiles": "COc1c2c(c(O)c3c4c(c(C)cc13)[C@@H]1O[C@@]3(C(OC)OC)O[C@@H]1[C@@](O[C@H]1C[C@@H](O)[C@@](O)(C(C)=O)[C@H](C)O1)(O4)[C@@]31CO1)C(=O)[C@@H](O)C[C@@H]2O[C@H]1C[C@@](C)(O)[C@H](OC(C)=O)[C@H](C)O1", "note": "[Trioxacarcin A]", "values": [
      {"measurement": "IC70 LXFL 529L", "setting": "LXFL 529L", "value": "subnanmolar"},
      {"measurement": "IC70 SF-268", "setting": "SF-268", "value": "subnanmolar"},
      {"measurement": "anti-tumor activity in murine models", "setting": "tumor", "value": "anti-tumor activity"},
      {"measurement": "gram-positive antibiotic activity", "setting": "gram-positive", "value": "gram-positive antibiotic activity"},
      {"measurement": "IC70 MCF-7", "setting": "MCF-7", "value": "subnanmolar"},
      {"measurement": "IC70 H-460", "setting": "H-460", "value": "subnanmolar"}
    ]},
    {"smiles": "COc1c2c(c(O)c3c4c(c(C)cc13)C1OC3(C(OC)OC)OC1C(O[C@H]1C[C@@H](O)[C@@](O)(C(C)=O)[C@H](C)O1)(O4)C3(O)CO)C(=O)C(O)CC2O[C@H]1C[C@@](C)(O)[C@H](OC(C)=O)[C@H](C)O1", "note": "(stereo partly shown) [Trioxacarcin B]", "values": [
      {"measurement": "anti-tumor activity in murine models", "setting": "tumor", "value": "anti-tumor activity"},
      {"measurement": "gram-positive antibiotic activity", "setting": "gram-positive", "value": "gram-positive antibiotic activity"}
    ]},
    {"smiles": "COc1c2c(c(O)c3c4c(c(C)cc13)C1OC3(C(OC)OC)OC1C(OC1CC(O)C(O)(C(C)O)C(C)O1)(O4)C31CO1)C(=O)C(O)CC2OC1COC(C)(OC(C)=O)C(C)(O)C1", "note": "(stereo not shown) [Trioxacarcin C]", "values": [
      {"measurement": "anti-tumor activity in murine models", "setting": "tumor", "value": "anti-tumor activity"},
      {"measurement": "gram-positive antibiotic activity", "setting": "gram-positive", "value": "gram-positive antibiotic activity"}
    ]},
    {"smiles": "COc1c2c(c(O)c3c4c(c(C)cc13)C1OC3(C(OC)OC)OC1[C@@](OC)(O4)[C@@]3(O)CCl)C(=O)CCC2", "note": "(stereo partly shown) [compound 2]", "values": [
      {"measurement": "potency relative to the bromohydrin", "setting": "H460 cells; H460 cells, relative to bromohydrin 3", "value": "an order of magnitude less potent"},
      {"measurement": "pIC50", "setting": "H460 cells; H460 cells", "value": 7.68}
    ]},
    {"smiles": "COc1c2c(c(O)c3c4c(c(C)cc13)C1OC3(C(OC)OC)OC1[C@@](OC)(O4)[C@@]3(O)CBr)C(=O)CCC2", "note": "(stereo partly shown) [compound 3]", "values": [
      {"measurement": "pIC50", "setting": "H460 cells; H460 cells", "value": 8.70},
      {"measurement": "cellular toxicity against H460 cells relative to the parent epoxide", "setting": "H460 cells", "value": "no loss in cellular toxicity"},
      {"measurement": "reversion to the epoxide during DNA incubation", "setting": "[1]; 4 h at 23° C.", "value": "did not revert to the epoxide"},
      {"measurement": "DNA alkylation", "setting": "[1]; incubation with d(AATTACGTAATT) for 4 h at 23° C.", "value": "did not alkylate DNA"}
    ]},
    {"smiles": "COc1c2c(c(O)c3c4c(c(C)cc13)C1OC3(C(OC)OC)OC1[C@@](OC)(O4)[C@@]3(O)CI)C(=O)CCC2", "note": "(stereo partly shown) [compound 4]", "values": [
      {"measurement": "pIC50", "setting": "SK-BR-3 (HER2+)", "value": 8.40},
      {"measurement": "pIC50", "setting": "NCI-N87 (HER2+)", "value": 9.00},
      {"measurement": "pIC50", "setting": "H460 cells; H460 cells", "value": 8.40},
      {"measurement": "cellular toxicity against H460 cells relative to the parent epoxide", "setting": "H460 cells", "value": "no loss in cellular toxicity"},
      {"measurement": "pIC50", "setting": "HT-29 (HER2−)", "value": 8.15}
    ]},
    {"smiles": "CNCCNC(=O)O[C@]1(CBr)C2(C(OC)OC)OC3c4c(C)cc5c(OC)c6c(c(O)c5c4O[C@]1(OC)C3O2)C(=O)CCC6", "note": "(stereo partly shown) [compound 9]", "values": [
      {"measurement": "liberation of bromohydrin 3 through diamine spacer cyclization", "setting": "[2]; 37° C., pH 7.4 or 5.0 buffer", "value": "no liberation of bromohydrin was observed"}
    ]},
    {"smiles": "CNCCCC(=O)O[C@]1(CBr)C2(C(OC)OC)OC3c4c(C)cc5c(OC)c6c(c(O)c5c4O[C@]1(OC)C3O2)C(=O)CCC6", "note": "(stereo partly shown) [compound 13]", "values": [
      {"measurement": "liberation of the bromohydrin through ester spacer cyclization", "setting": "[2]; pH 7.4 or 5.0, extended incubation at 37° C. or 50° C.", "value": "failed to liberate the bromohydrin"}
    ]},
    {"smiles": "COc1c2c(c(O)c3c4c(c(C)cc13)C1OC3(C(OC)OC)OC1[C@@](OC)(O4)[C@]3(CBr)OCN(CCS(C)(=O)=O)C(=O)OCc1ccc(NC(=O)[C@H](C)NC(=O)[C@@H](NC(=O)CCCCCN3C(=O)C=CC3=O)C(C)C)cc1)C(=O)CCC2", "note": "(stereo partly shown) [compound 19]", "values": [
      {"measurement": "stability of drug-linker quenched with N-acetyl cysteine", "setting": "[3]; 37° C., pH 7.4 buffer", "value": "stable for days"},
      {"measurement": "payload release upon exposure to Cathepsin B", "setting": "Cathepsin B", "value": "excellent release kinetics; also recorded: rapidly liberated FST-bromohydrin payload 3"}
    ]},
    {"smiles": "COCCOCCOCCOCCOCCOCCOCCC(=O)NCCCC[C@H](NC(=O)CCOCCOCCOCCOCCN1C(=O)C=CC1=O)C(=O)N[C@H](C(=O)N[C@@H](C)C(=O)Nc1ccc(COC(=O)N(CCS(C)(=O)=O)CO[C@]2(CBr)C3(C(OC)OC)OC4c5c(C)cc6c(OC)c7c(c(O)c6c5O[C@]2(OC)C4O3)C(=O)CCC7)cc1)C(C)C", "note": "(stereo partly shown) [compound 27]", "values": [
      {"measurement": "stability of drug-linker at pH 5.0 and 7.4", "setting": "[3]; 37° C., pH 5.0 and pH 7.4", "value": "exceptionally stable"},
      {"measurement": "free drug released", "setting": "[3]; after 1 week at pH 7.4, 37° C.", "value": "no detectable free drug released"},
      {"measurement": "payload release upon exposure to Cathepsin B", "setting": "Cathepsin B", "value": "rapidly releases payload"}
    ]}
  ]
}
